Marks after values point to notes of the source that are not given here.
Key:
[1] = molecular target: T1, human TGR5 (Homo sapiens, UniProt Q8TDU6); assay: Cell-based TGR5 assay (cAMP generation, HTRF); conditions: HEK293 cells stably transfected with human TGR5; cAMP by HTRF; 30 minutes at 37° C.; read-out: pEC50 Human TGR5 (converted)
T1 construct: expressed in transfected cells; host or cells: HEK293
T1 sequence (Q8TDU6 1-330): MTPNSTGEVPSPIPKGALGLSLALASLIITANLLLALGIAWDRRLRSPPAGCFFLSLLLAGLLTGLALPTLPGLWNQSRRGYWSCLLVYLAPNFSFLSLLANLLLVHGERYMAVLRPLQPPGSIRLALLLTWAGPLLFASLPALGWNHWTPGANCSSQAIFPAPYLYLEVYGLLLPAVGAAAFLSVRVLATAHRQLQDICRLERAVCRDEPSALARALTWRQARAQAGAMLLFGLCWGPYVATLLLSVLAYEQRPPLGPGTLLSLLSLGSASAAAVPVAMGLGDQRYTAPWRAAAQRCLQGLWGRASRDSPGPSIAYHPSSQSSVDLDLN
Outline: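 First, compounds in 3-fold serial dilution were placed in HBSS with 10 mM HEPES pH 7.4 and 0.5 mM IBMX. Next, human TGR5-expressing HEK293 cells were added and incubated 30 min at 37° C. Finally, cAMP was detected by HTRF and pEC50 derived by logistic fitting.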

[2] = tested on: Western diet (WD)-fed mice; assay: Mouse model of NAFLD and mild diabetes, Western diet (WD)-fed mice: glucose, insulin, liver lipids, GLP levels; assay type: in vivo, C57BL/6 male mice
Experimental: Seven week old C57BL/6 male mice were housed 5/cage. Two cages of mice were put on normal chow (Harlan Teklad 2018), and the remaining cages of mice were put on WD (Harlan Teklad, TD.88137, […]/0.2% cholesterol) to induce NAFLD. After 10 weeks, mice were weighed and fasted for 4 h. Blood was collected to measure fasting glucose levels, processed to plasma for measurement of insulin, triglycerides and total cholesterol. This process was repeated on Day 29 of treatment. Based on body weight and fasted glucose and insulin levels, mice were divided into 5 treatment groups (n=10/group), Table 20. […] Mice were weighed twice weekly throughout the study. On the last day of the study (Day 30, 8 hours after food removal), mice were euthanized. Blood was collected in tubes with inhibitors to block DPP-4 activity and processed to plasma for measurement of liver enzymes and GLP levels using an Ace Alera clinical analyzer and the Multi-Array Assay System from Meso Scale Discovery, respectively. The entire liver was collected, weighed, and a sample was taken and weighed for measurement of triglycerides and total cholesterol.
Data for each group are presented as mean±SEM. Statistical analyses were performed using one-way ANOVA followed by Holm-Sidak's multiple comparisons test. For GLP levels, <statistical significance compared to vehicle (WD) is marked as *, P<0.05; **, P<0.01, ***, P<0.001, and ****, P<0.0001; of linagliptin (WD) versus I-389 alone (WD) or linaglptin+I-389 (WD) is marked as †, P<0.05; ††, P<0.01, of †††, P<0.001, and ††††, P<0.0001; and of I-389 (WD) versus linagliptin (WD)+I-389 (WD) is marked as ^, P<0.05; ^ ^P<0.01, ^ ^^P, P<0.001, and ^ ^^^, P<0.0001. For the remaining parameters, statistical significance compared to vehicle (WD) is marked as *, P<0.05; **, P<0.01, ***, P<0.001, and ****, P<0.0001.

[3] = tested on: small intestine transit; assay: Intestinal motility independent of gastric emptying (carmine red dye front); assay type: in vivo, C57BL/6 male mice; conditions: I-389 30 mg/kg PO; dye infused via duodenal catheter 1 h later; 15 min; vs vehicle; FIG. 6
Experimental: Seven-eight week old C57BL/6 male mice were acclimated for four days. Mice were then divided into 2 groups and fasted for 2-1/2 h, followed by a PO dose (10 mL/kg) of vehicle (10% 2-hydroxypropyl-β-cyclodextrin [HPCD] in 10 mM PBS containing 0.1% tween 80; HPCD/tween 80) or I-389 30 mg/kg. One hour later, carmine red (6% in sterile water; 100 μL/mouse) dye was infused via the duodenal catheter and mice were euthanised fifteen min after that. The entire length of the small intestine and the distance from the stomach to the dye front in the small intestine was measured and used to calculate the percentage of the small intestine the dye front had travelled during the 15 min timeframe.

[4] = tested on: small intestine and colon of mice; assay: Small intestine and colon weight, villus/crypt length, colon crypt depth, plasma GLP-1 and GLP-2 in mice; assay type: in vivo, CD-1 female mice; conditions: ten consecutive days
Experimental: Tedulgutide (a GLP-2 receptor agonist; American Peptide, catalog #304076, supplied by Bachem) 50 μg/kg in […] was injected SC in a control group BID during the same period. […] The small intestine and colon were collected, flushed with cold PBS to remove contests, patted dry, weighed and further trimmed for histological analysis. Morphometric analysis was performed to determine the villus/crypt length in the proximal jejunum and distal ileum and crypt depth (length) in the proximal colon.
Data for each group are presented as mean±SEM. Statistical analyses were performed using one-way ANOVA followed by Holm-Sidak's multiple comparisons test. Statistical significance compared to vehicle (WD) is marked as *, P<0.05; **, P<0.01, ***, P<0.001, and ****, P<0.0001.

[5] = tested on: mice with 5-FU-induced diarrhea; assay: Chemotherapy-induced diarrhea model (5-FU), fecal form score; assay type: in vivo, CD-1 female mice; conditions: 5-FU 60 mg/kg IP days 5-11; I-388 30 mg/kg PO BID, teduglutide 0.4 mg/kg SQ BID, days 1-13; FFS days 11-13 summed; FIG. 1
Experimental: Four groups of adult CD-1 female mice on regular chow were dosed with the following BID starting on Day 1: 2 groups, vehicle (10% hydroxypropyl-β-cyclodextrin in PBS; PO; 5 mL/kg); 1 group, Compound I-388 at 30 mg/kg in vehicle (PO; 5 mL/kg); and 1 group, teduglutide 0.4 mg/kg (American Peptide, Sunnyvale, CA; reconstituted in PBS; SQ; 10 mL/kg) 0.4 mg/kg SQ. On Days 5-11, the groups of mice were also given QD IP injections (5 mL/kg) of the following treatments: first vehicle group, PBS and remaining groups, 5-fluorouracil (5-FU) 60 mg/kg (Fresenius Kabi USA, Lake Zurich, IL) diluted in PBS to induce mucositis with diarrhea. Body weight was measured throughout the study and fecal form was scored on Day 11-13 of the study according to the following scale: 0, normal stool; 1, slightly wet and soft stool; 2, wet and unformed stool with moderate perianal staining of the coat; 3, watery stool with severe perianal staining of the coat.
All mice were dosed on day 1-13 with vehicle, with 0.4 mg/kg of teduglutide, or with 30 mg/kg of compound I-388 (vehicle and Cmpd. I-388: PO, […] and teduglutide: SQ, 10 mL/kg). PBS or 5-FU at 60 mg/kg (used to induce mucositis and diarrhea) were administered interperionally (IP; 5 mL/kg) on days 5-11.

SMILES | EC50 [1] | active GLP-1 levels / release ([2]; WD-fed mice, Day 30 plasma, I-389 30 mg/kg, linagliptin 10 mg/kg, FIG. 14) | total GLP-1 levels ([2]; WD-fed mice, Day 30 plasma, I-389 30 mg/kg, linagliptin 10 mg/kg, FIG. 15) | body weight ([2]; WD-fed mice, data not shown) | liver total cholesterol levels (in words) ([2]; WD-fed mice, vs vehicle (WD)) | liver triglycerides (in words) ([2]; WD-fed mice, vs vehicle (WD)) | Liver weight ([2]; Western diet, liraglutide 0.4 mg/kg BID SQ, I-389 30 mg/kg BID PO, linagliptin 10 mg/kg QD PO, mean±SEM, vehicle WD 2.13 ± 0.14) | 4-h fasted insulin ([2]; Western diet, liraglutide 0.4 mg/kg BID SQ, I-389 30 mg/kg BID PO, linagliptin 10 mg/kg QD PO, mean±SEM, vehicle WD 2.3 ± 0.3) | Hepatic cholesterol ([2]; Western diet, liraglutide 0.4 mg/kg BID SQ, I-389 30 mg/kg BID PO, linagliptin 10 mg/kg QD PO, mean±SEM, vehicle WD 8.56 ± 0.25) | Hepatic triglycerides ([2]; Western diet, liraglutide 0.4 mg/kg BID SQ, I-389 30 mg/kg BID PO, linagliptin 10 mg/kg QD PO, mean±SEM, vehicle WD 145.40 ± 14.80) | 4-h fasted glucose ([2]; Western diet, liraglutide 0.4 mg/kg BID SQ, I-389 30 mg/kg BID PO, linagliptin 10 mg/kg QD PO, mean±SEM, vehicle WD 239 ± 13) | percentage the carmine red dye front travelled in the small intestine [3] | increase of colon weight ([4]; teduglutide 50 μg/kg SC BID (trend), I-389 100 mg/kg PO BID co-dosed with sitagliptin 3.6 g/L in drinking water, FIG. 7, FIG. 8) | increase of small intestine weight ([4]; teduglutide 50 μg/kg SC BID, FIG. 7) | increase of villus-crypt length in the proximal jejunum ([4]; teduglutide 50 μg/kg SC BID, I-389 100 mg/kg PO BID + sitagliptin, FIG. 9) | increase of villus-crypt length in the distal ileum ([4]; teduglutide 50 μg/kg SC BID, I-389 100 mg/kg PO BID + sitagliptin, FIG. 10) | cumulative fecal form score (FFS) [5]
CN(CCCCNC(=O)N[C@@H](CO)[C@@H](O)[C@H](O)[C@H](O)CO)S(=O)(=O)c1ccc(Cl)c(COC2(c3cnccc3-c3ccccc3OC3CC3)CC2)c1 [Compound I-389, 1-(4-[N-methyl[4-chloro-3-([1-[4-(2-cyclopropoxyphenyl)pyridin-3-yl]cyclopropoxy]methyl)benzene]sulfonamido]butyl)-3-[(2S,3R,4S,5R)-1,3,4,5,6-pentahydroxyhexan-2-yl]urea] | < 100 nM | effective at inducing active GLP-1 release | highly elevated | did not significantly affect | lowered | lowered | 1.77 ± 0.09* g | 1.6 ± 0.2* ng/mL | 7.24 ± 0.41** mg/g | 87.82 ± 13.77*** mg/g | 178 ± 7** mg/dL | statistically significant increase | – | – | – | – | –
CC[C@H](C)[C@H](NC(=O)[C@H](Cc1ccccc1)NC(=O)[C@H](CC(=O)O)NC(=O)[C@H](CCCNC(=N)N)NC(=O)[C@H](C)NC(=O)[C@H](C)NC(=O)[C@H](CC(C)C)NC(=O)[C@H](CC(N)=O)NC(=O)[C@H](CC(=O)O)NC(=O)[C@H](CC(C)C)NC(=O)[C@@H](NC(=O)[C@@H](NC(=O)[C@H](CC(N)=O)NC(=O)[C@H](CCSC)NC(=O)[C@H](CCC(=O)O)NC(=O)[C@H](CC(=O)O)NC(=O)[C@H](CO)NC(=O)[C@H](Cc1ccccc1)NC(=O)[C@H](CO)NC(=O)CNC(=O)[C@H](CC(=O)O)NC(=O)CNC(=O)[C@@H](N)Cc1c[nH]cn1)[C@@H](C)O)[C@@H](C)CC)C(=O)N[C@@H](CC(N)=O)C(=O)N[C@@H](Cc1c[nH]c2ccccc12)C(=O)N[C@@H](CC(C)C)C(=O)N[C@H](C(=O)N[C@@H](CCC(N)=O)C(=O)N[C@H](C(=O)N[C@@H](CCCCN)C(=O)N[C@H](C(=O)N[C@H](C(=O)N[C@@H](CC(=O)O)C(=O)O)[C@@H](C)O)[C@@H](C)CC)[C@@H](C)O)[C@@H](C)CC [teduglutide] | – | – | – | – | – | – | – | – | – | – | – | – | 14% | 48% | 55% | 30% | significantly improved
